Test results: article PMC9472817, “Structural and functional characterisation of a stable, broad-specificity multimeric sialidase from the oral pathogen Tannerella forsythia” (Biochemical Journal, 2022)
Like-named read-outs stand apart in the source and are kept apart here.

Legend:
NanH-D237A [1] = target: T1, NanH-D237A (Tannerella forsythia, UniProt G8UIQ1, D224A); experiment: crystal structure ([…] soak, […] Å) and tryptophan fluorescence quenching; type: binding
T1 construct: gene BFO_2207; C-terminally hexahistidine-tagged NanH
T1 sequence (G8UIQ1 21-539 D224A): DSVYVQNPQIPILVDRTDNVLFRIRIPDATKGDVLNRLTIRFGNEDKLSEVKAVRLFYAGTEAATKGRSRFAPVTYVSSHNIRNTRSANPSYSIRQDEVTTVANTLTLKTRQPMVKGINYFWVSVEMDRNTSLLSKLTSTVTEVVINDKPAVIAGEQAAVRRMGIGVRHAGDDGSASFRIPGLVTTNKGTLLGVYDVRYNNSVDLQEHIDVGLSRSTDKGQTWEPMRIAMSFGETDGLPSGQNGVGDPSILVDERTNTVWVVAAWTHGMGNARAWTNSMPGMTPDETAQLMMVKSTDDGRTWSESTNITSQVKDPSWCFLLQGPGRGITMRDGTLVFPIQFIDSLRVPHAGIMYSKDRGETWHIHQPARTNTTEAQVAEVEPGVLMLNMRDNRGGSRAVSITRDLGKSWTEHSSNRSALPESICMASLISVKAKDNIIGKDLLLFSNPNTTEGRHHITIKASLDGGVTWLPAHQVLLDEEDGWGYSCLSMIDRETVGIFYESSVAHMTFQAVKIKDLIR

NanH-D237A [2] = target: T1, NanH-D237A; experiment: as above; type: binding; remark: listed apart in the source

| SMILES | Kd (NanH-D237A [1]) [µM] | Kd (NanH-D237A [2]) [µM] |
| --- | --- | --- |
| CC(=O)N[C@H]1[C@H]([C@H](O)[C@H](O)CO)O[C@@](O[C@H]2[C@@H](O)[C@@H](CO)O[C@@H](O[C@H]3[C@H](O)[C@@H](O)C(O)O[C@@H]3CO)[C@@H]2O)(C(=O)O)C[C@@H]1O (some centres unmarked) [3-SL] | 305 ± 91.5 |  |
| CC(=O)N[C@H]1[C@H]([C@H](O)[C@H](O)CO)O[C@@](OC[C@H]2O[C@@H](O[C@H]3[C@H](O)[C@@H](O)C(O)O[C@@H]3CO)[C@H](O)[C@@H](O)[C@H]2O)(C(=O)O)C[C@@H]1O (some centres unmarked) [6-SL] |  | 133 ± 48.3 |
